Results published in US5789416A, “N^6 mono heterocyclic substituted adenosine derivatives” (CV Therapeutics, priority 1996, dated 1998).
Like-named read-outs stand apart in the source and are kept apart here.

Tests used:
Assay type in all cases: cell-based
adenosine A2 receptors = target: T1, adenosine A2 receptors (Rattus norvegicus, UniProt P30543); test: stimulation of cAMP production in PC12 cells (adenosine A2 receptor agonist function); settings: stimulation of cAMP production (A2 agonism)
T1 construct: stimulate cAMP production in PC12 cells, a function of agonist stimulation of adenosine A2 receptors; endogenous in cells; host or cells: PC12 cells
T1 sequence (P30543 whole entry): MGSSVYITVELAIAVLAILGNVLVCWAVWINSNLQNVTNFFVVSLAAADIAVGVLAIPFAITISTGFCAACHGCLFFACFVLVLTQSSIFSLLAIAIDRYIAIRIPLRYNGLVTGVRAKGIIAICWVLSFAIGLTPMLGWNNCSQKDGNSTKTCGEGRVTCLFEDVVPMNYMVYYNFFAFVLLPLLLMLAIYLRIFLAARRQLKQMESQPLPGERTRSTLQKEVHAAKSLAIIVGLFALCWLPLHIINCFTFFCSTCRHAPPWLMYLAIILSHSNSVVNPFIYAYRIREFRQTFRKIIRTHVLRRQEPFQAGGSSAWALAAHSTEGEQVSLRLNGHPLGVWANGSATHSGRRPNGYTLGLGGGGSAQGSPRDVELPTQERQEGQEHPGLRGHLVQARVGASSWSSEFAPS
Experimental: Compounds of this invention prepared according to the method of Example 1 were tested in two functional models specific for adenosine A1 receptor agonist function. The first was the A1 receptor mediated inhibition of isoproterenol stimulated cAMP accumulation in DDT cells. The EC50 of each derivative is shown in Table I. Also shown in Table I is the ability of each derivative to stimulate cAMP production in PC12 cells, a function of agonist stimulation of adenosine A2 receptors. The ratio of the relative potency of each compound in stimulating either an A1 receptor or an A2 receptor effect is termed the selectivity of each compound for the A1 receptor. […] The use of measuring cAMP metabolism as an assay for adenosine A1 receptor function has been previously described (Scammells, P., Baker, S., Belardinelli, L., and Olsson, R., 1994, Substituted 1,3-dipropylxanthines as irreversible antagonists of A1 adenosine receptors. J. Med. Chem 37: […], 1994).

adenosine A1 receptor [1] = test: A1 receptor mediated inhibition of isoproterenol stimulated cAMP accumulation in DDT cells; settings: for A1 /A2: ratio of EC50 in DDT cells (A1) to EC50 in PC12 cells (A2)
Description: (§1) The first was the A1 receptor mediated inhibition of isoproterenol stimulated cAMP accumulation in DDT cells. The EC50 of each derivative is shown in Table I. Also shown in Table I is the ability of each derivative to stimulate cAMP production in PC12 cells, a function of agonist stimulation of adenosine A2 receptors. The ratio of the relative potency of each compound in stimulating either an A1 receptor or an A2 receptor effect is termed the selectivity of each compound for the A1 receptor.

adenosine A1 receptor [2] = target: T2, adenosine A1 receptor (Mesocricetus auratus, UniProt A0A1U8BVR4); test: as above; settings: DDT cells; inhibition of isoproterenol stimulated cAMP accumulation (A1 agonism)
T2 construct: endogenous in cells
T2 sequence (A0A1U8BVR4 1-326): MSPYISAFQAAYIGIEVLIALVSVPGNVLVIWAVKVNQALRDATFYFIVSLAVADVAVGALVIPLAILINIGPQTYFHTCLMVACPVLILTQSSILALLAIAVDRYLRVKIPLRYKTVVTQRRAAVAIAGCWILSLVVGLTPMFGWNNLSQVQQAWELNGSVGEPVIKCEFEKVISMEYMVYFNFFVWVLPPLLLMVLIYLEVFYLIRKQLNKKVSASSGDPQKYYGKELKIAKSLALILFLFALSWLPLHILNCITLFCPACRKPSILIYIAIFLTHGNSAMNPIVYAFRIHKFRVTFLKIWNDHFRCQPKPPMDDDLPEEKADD
Description: as §1

[3] = ratio of EC50 in PC12 cells (A2) to EC50 in DDT cells (A1), A1 selectivity

| SMILES | EC50 (adenosine A2 receptors) [nM] | A1 /A2 (adenosine A1 receptor [1]) | A2 /A1 (adenosine A1 receptor [1]; [3]) | EC50 (adenosine A1 receptor [2]) [nM] | A2 /A1 (adenosine A1 receptor [1]) |
| --- | --- | --- | --- | --- | --- |
| OC[C@H]1O[C@@H](n2cnc3c(N[C@H]4CCOC4)ncnc32)[C@H](O)[C@@H]1O [V, 6-(3-(S)-aminotetrahydrofuranyl)purine Riboside] | 7680 | 0.00044 | 2258 | 3.4 |  |
| OC[C@H]1O[C@@H](n2cnc3c(N[C@@H]4CCOC4)ncnc32)[C@H](O)[C@@H]1O [III] | 448 | 0.0024 | 414 | 1.08 |  |
| OC[C@H]1O[C@@H](n2cnc3c(NC4CCOCC4)ncnc32)[C@H](O)[C@@H]1O [I, 6-(4-aminopyran)-purine Riboside] | 970 | 0.012 |  | 12 | 80.0 |
| OC[C@H]1O[C@@H](n2cnc3c(NC4CCOC4)ncnc32)[C@H](O)[C@@H]1O (some centres unmarked) [II, 6-(3-aminotetrahydrofuranyl)purine Riboside] | 1400 | 0.0093 | 107.6 | 13 |  |
| O=C1NCCCC[C@@H]1Nc1ncnc2c1ncn2[C@@H]1O[C@H](CO)[C@@H](O)[C@H]1O [IV] | 181 | 0.889 | 1.12 | 161 |  |
